Consider 2 molecules from patent publication US4334066A (priority 1981, dated 1982).

Type in all cases: cell-based
In experiment [1] the test system is Rice blast disease (Pyricularia oxyzae). Nature of the experiment: microbe, parasite or virus in culture. The conditions noted are these: 48 h, read-out: Minimum Inhibitory Concentration.
Experiment [2] relates to Stem rot of eggplant (Sclerotinia Sclerotiorum). The conditions noted are these: 48 h, test microorganism C, PDA medium, complete inhibition of mycelial growth, read 2 days later, read-out: Minimum Inhibitory Concentration. The source says:
(§1) The test microorganisms employed are described below.
C . . . Stem rot of eggplant
(Sclerotinia Sclerotiorum)

In experiment [3] the test system is Gammy stem blight of melon (Mycosphaerella melonis). The conditions noted are these: 48 h, test microorganism D, PDA medium, complete inhibition of mycelial growth, read 2 days later, read-out: Minimum Inhibitory Concentration.
Description: as §1
D . . . Gammy stem blight of melon

The test system of experiment [4] is Early blight of tomato (Alternaria solaui). The settings on record: 48 h, test microorganism E, PDA medium, complete inhibition of mycelial growth, read 2 days later, read-out: Minimum Inhibitory Concentration.
Description: as §1
E . . . Early blight of tomato

Experiment [5] deals with Bacterial blight of rice (Xanthomonas oryzae). In words: microbe, parasite or virus in culture. The settings on record: 48 h, read-out: Minimum Inhibitory Concentration.

Converted amounts (≈) assume the structure as drawn.

Consider `CCC1OC(OC)C=C(CN2CCNCC2)C1=O` (stereo not drawn) [Compound 1, 6-ethyl-2-methoxy-4-piperazinomethyl-5-oxo-5,6-dihydro-2H-pyran], for which the MIC in experiment [1] amounted to 100 µg/mL (≈ 393 µM); in experiment [2] it was 100 µg/mL (≈ 393 µM); in experiment [3], 100 µg/mL (≈ 393 µM); in experiment [4], 200 µg/mL (≈ 786 µM); in experiment [5], 12.5 µg/mL (≈ 49.1 µM).

For `CCOC1C=C(CN2CCOCC2)C(=O)C(C(C)C)O1` (stereo not drawn) [Compound 2, 6-isopropyl-2-ethoxy-4-morpholinomethyl-5-oxo-5,6-dihydro-2H-pyran], the MIC in experiment [1] amounted to 100 µg/mL (≈ 353 µM); in experiment [2], 100 µg/mL (≈ 353 µM); in experiment [3], 100 µg/mL (≈ 353 µM); in experiment [4], 200 µg/mL (≈ 706 µM).
